Results on five molecules are retold here after patent US11779564B2, “Methods and compositions for treating bile acid diarrhea, diarrhea associated with small intestine resection or gallbladder removal, and short bowel syndrome” (NAPO PHARMACEUTICALS, INC., priority 2017, dated 2023).

The subject of data set [1] is chronic diarrhea in patient with SBS. Description: Case report: SBS patient with chronic diarrhea (Example 1). Particulars: same patient, attempted for 12 years before crofelemer.
For data set [2] the following is noted: in vivo, cited from earlier work.

With `CN1[C@@H]2CC[C@H]1C[C@@H](OC(=O)C(CO)c1ccccc1)C2` (stereo partly shown) [atropine], in data set [1], the “effectiveness in relieving diarrhea symptoms (earlier treatments)” value (from here on “effectiveness”) is “None of which were effective”.

With `COc1ccc2c3c1O[C@H]1[C@@H](O)C=C[C@H]4[C@@H](C2)N(C)CC[C@@]341` [codeine], the “effectiveness” value in data set [1] is listed as “None of which were effective”.

For the molecule `CCOC(=O)C1(c2ccccc2)CCN(CCC(C#N)(c2ccccc2)c2ccccc2)CC1` [diphenoxylate], the “effectiveness” value in data set [1] is given as “None of which were effective”.

`CN(C)C(=O)C(CCN1CCC(O)(c2ccc(Cl)cc2)CC1)(c1ccccc1)c1ccccc1` [loperamide]: the “effectiveness” value in data set [1] is on record as “None of which were effective”.

As for crofelemer, the systemic bioavailability result in data set [2] (human) is given as “virtually no systemic bioavailability”. Moreover, in data set [2], the “absorption from the GI tract” value is “little or no absorption” and the tolerability entry is recorded as “well tolerated”.
